Experimental data from US11389456B2, “Compounds and methods for treating oxalate-related diseases” (OxaluRx, Inc., priority 2018, dated 2022).
Converted amounts (≈) assume the structure as drawn.

Columns and labels:
[1] = tested on: CD1 mice administered 1% ethylene glycol; test: Mouse ethylene glycol model of hyperoxaluria, urinary oxalate; format: in vivo; conditions: CD-1 mice, twice-daily oral gavage 50 mg/kg
Protocol: Mouse Models of Hyperoxaluria for Determining In Vivo Efficacy of hGOX Inhibitors
Male CD1 mice, 6-8 weeks of age (Charles River Labs, Wilmington, Mass.) were administered 1% ethylene glycol ad libitum their drinking water for 14 days. The mice were housed in individual cages, fed ad libitum and 24-h urine collections were initiated on days 1, 5, 9 and 14 using a 15-rack metabolic cage system equipped with a CCS2000 chiller system (Hatteras Instruments, Cary, N.C.) to maintain the samples at 4° C. during collection. Hydrochloric acid (100 μL of 6N) added to the collection vials to acidify the samples and prevent degradation of oxalate before evaluation.
Urine samples were maintained at 4° C. and urinary oxalate concentrations were determined within 24 hours of sample collection using a Trinity Biotech oxalate assay kit (Catalog #591-D). The assay was an enzymatic method based on the oxidation of oxalate by oxalate oxidase followed by measurement of hydrogen peroxide (H2O2) produced during the peroxidase-catalyzed reaction. Briefly, a 1-mL aliquot of each sample was diluted with an equal volume of assay diluent to bring the pH to between 5.0 and 7.0, then placed into purifier tubes (provided in the kit) and mixed for 5 min. The tubes were centrifuged for 5 min at 2000 rpm (1500×g) and the supernatants collected for the oxalate assay. The procedure was specific for oxalate with no special equipment and was easily adaptable for clinical automated analyzers. Each assay included a standard curve prepared with a standardized oxalate control sample (included in the kit) and internal assay control samples for both a normal (0.2-0.3 mmol/L) and elevated (0.86-1.21 mmol/L) level of oxalate.
To evaluate in vivo efficacy, mice were dosed by once-daily oral gavage of compound I-002 in an appropriate vehicle (e.g., phosphate-buffered saline, pH 7.4) at a dosage of 100 mg/kg. […]
The effect of example I-001 in the ethylene glycol model using CD-1 mice was evaluated by twice-daily, oral gavage dosing at 50 mg/kg for 6 days (days 5-11). […]

[2] = Protein binding (plasma equilibrium dialysis); format: in vitro ADME; conditions: 5 hours at 37° C.
Outline: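 Compound spiked into plasma at 1 μM final (0.2% DMSO) and dialysed against phosphate buffer for 5 hours at 37 °C with shaking. Donor and receiver samples, matrix-matched and acetonitrile-quenched with internal standard, quantified by LC/MS/MS alongside 0-hour plasma samples.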

[3] = Solubility in phosphate buffered saline (PBS), pH 7.4; format: physicochemical; conditions: phosphate buffer (PBS), aqueous buffer, kinetic from dmso stock; phosphate buffered saline pH 7.4, 1% DMSO, 1 hour shaking at room temperature
Outline: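 DMSO stock (10 mM) diluted into 100 mM phosphate buffer pH 7.4, or into deionized distilled water for the aqueous assay, at 1% final DMSO and shaken 1 h at room temperature. After centrifugation, supernatants quantified by LC-MS/MS against a calibration curve with internal standard.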

[4] = biological target: recombinant full-length human hydroxyacid oxidase 1 (HAO1), the equivalent of hGOX (Homo sapiens (Human), UniProt Q9UJM8); test: In-vitro human glycolate oxidase (hGOX) assay (Amplex red/HRP fluorescence); format: biochemical
Chain of recombinant full-length human hydroxyacid oxidase 1 (HAO1), the equivalent of hGOX (Q9UJM8 whole entry): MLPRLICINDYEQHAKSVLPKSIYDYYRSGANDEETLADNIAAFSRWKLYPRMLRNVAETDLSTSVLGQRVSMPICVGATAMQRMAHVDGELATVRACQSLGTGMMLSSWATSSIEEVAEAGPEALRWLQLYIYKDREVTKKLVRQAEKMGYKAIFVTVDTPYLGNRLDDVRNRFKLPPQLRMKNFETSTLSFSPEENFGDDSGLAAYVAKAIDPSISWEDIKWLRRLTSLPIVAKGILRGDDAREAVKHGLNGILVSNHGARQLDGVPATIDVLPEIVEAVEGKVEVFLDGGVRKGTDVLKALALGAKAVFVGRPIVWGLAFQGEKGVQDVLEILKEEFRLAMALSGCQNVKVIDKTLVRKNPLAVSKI
Protocol: Biological Activity Assay: In-Vitro Human Glycolate Oxidase (hGOX) Assay
The in-vitro glycolate oxidase assay was performed using recombinant full-length human hydroxyacid oxidase 1 (HAO1), the equivalent of hGOX. […] Purified HAO1 was dissolved in assay buffer consisting of 10 mM NaCl, 110 mM KCl, 2 mM MgCl2, 50 mM HEPES (pH 7.4) and 0.01% Triton™ X-100.

recovery at 5 h, 1 μM [2]: 75.4% | solubility at 1 h [3]: 94.5 µM (≈ 24.1 µg/mL) | IC50 [4]: 0.11 µM
Compound: O=C(O)c1nn[nH]c1Sc1ccc(Cl)cc1 [Example I-001, 5-((4-chlorophenyl)thio)-1H-1,2,3-triazole-4-carboxylic acid]
decrease of total urinary oxalate values (μmole/24 hr/mL) ([1]; 24-hour urine collection after 3 days of drug treatment): 24% | decrease of total urinary oxalate values (μmole/24 hr/mL) ([1]; 24-hour urine collection after 6 days of drug treatment): 32%
